Experimental data reported in PubChem BioAssay (NCI).
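Cultured in 96-well plates, cells were exposed to test compound for 48 hours across five concentrations. The concentration for full growth arrest is given as TGI.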

Assays:
Assay in all cases: NCI-60 cell line screen, 48 h
[1] = system: 786-0 renal
[2] = system: A549 NSCLC
[3] = system: ACHN renal
[4] = system: CAKI-1 renal
[5] = system: DMS 114 small cell lung
[6] = system: HCC-2998 colon
[7] = system: HCT-116 colon
[8] = system: HCT-15 colon
[9] = system: HL-60(TB) leukemia
[10] = system: HOP-92 NSCLC
[11] = system: IGROV1 ovarian
[12] = system: K-562 leukemia
[13] = system: KM12 colon
[14] = system: KM20L2 colon
[15] = system: LOX IMVI melanoma
[16] = system: M14 melanoma
[17] = system: MALME-3M melanoma
[18] = system: MOLT-4 leukemia
[19] = system: NCI-H226 lung
[20] = system: NCI-H23 lung
[21] = system: OVCAR-3 ovarian
[22] = system: OVCAR-4 ovarian
[23] = system: OVCAR-5 ovarian
[24] = system: RXF 393 renal
[25] = system: SF-268 CNS
[26] = system: SK-MEL-2 melanoma
[27] = system: SK-MEL-28 melanoma
[28] = system: SK-OV-3 ovarian
[29] = system: SN12C renal
[30] = system: SNB-19 CNS
[31] = system: SNB-75 CNS
[32] = system: SNB-78 CNS
[33] = system: SR leukemia
[34] = system: SW-620 colon
[35] = system: TK-10 renal
[36] = system: U251 CNS
[37] = system: UACC-62 melanoma
[38] = system: UO-31 renal
[39] = system: CCRF-CEM leukemia
[40] = system: COLO 205 colon
[41] = system: DLD-1 colon
[42] = system: DMS 273 small cell lung
[43] = system: EKVX NSCLC
[44] = system: HOP-18 NSCLC
[45] = system: HOP-62 NSCLC
[46] = system: HT29 colon
[47] = system: LXFL 529 NSCLC
[48] = system: M19-MEL melanoma
[49] = system: NCI-H460 lung
[50] = system: NCI-H522 lung
[51] = system: OVCAR-8 ovarian
[52] = system: RPMI-8226 leukemia
[53] = system: SF-295 CNS
[54] = system: SF-539 CNS
[55] = system: SK-MEL-5 melanoma
[56] = system: UACC-257 melanoma

SMILES: N#CN1CCC2CC(=O)CCC2C1 (stereo not drawn)
- TGI [1]: > 100 µM
- TGI [2]: > 100 µM
- TGI [3]: > 100 µM
- TGI [4]: > 100 µM
- TGI [5]: > 100 µM
- TGI [6]: > 100 µM
- TGI [7]: > 100 µM
- TGI [8]: > 100 µM
- TGI [9]: > 100 µM
- TGI [10]: > 100 µM
- TGI [11]: > 100 µM
- TGI [12]: > 100 µM
- TGI [13]: > 100 µM
- TGI [14]: > 100 µM
- TGI [15]: > 100 µM
- TGI [16]: > 100 µM
- TGI [17]: > 100 µM
- TGI [18]: > 100 µM
- TGI [19]: > 100 µM
- TGI [20]: > 100 µM
- TGI [21]: > 100 µM
- TGI [22]: > 100 µM
- TGI [23]: > 100 µM
- TGI [24]: > 100 µM
- TGI [25]: > 100 µM
- TGI [26]: > 100 µM
- TGI [27]: > 100 µM
- TGI [28]: > 100 µM
- TGI [29]: > 100 µM
- TGI [30]: > 100 µM
- TGI [31]: > 100 µM
- TGI [32]: > 100 µM
- TGI [33]: > 100 µM
- TGI [34]: > 100 µM
- TGI [35]: > 100 µM
- TGI [36]: > 100 µM
- TGI [37]: > 100 µM
- TGI [38]: > 100 µM

SMILES: COc1cc(/C=C(\C#N)C(=O)c2ccccc2)cc(OC)c1OC
- TGI [1]: > 100 µM
- TGI [2]: > 100 µM
- TGI [3]: > 100 µM
- TGI [4]: > 100 µM
- TGI [39]: > 100 µM
- TGI [40]: > 100 µM
- TGI [41]: > 100 µM
- TGI [5]: > 100 µM
- TGI [42]: > 100 µM
- TGI [43]: > 100 µM
- TGI [6]: > 100 µM
- TGI [7]: > 100 µM
- TGI [8]: > 100 µM
- TGI [9]: > 100 µM
- TGI [44]: > 100 µM
- TGI [45]: > 100 µM
- TGI [10]: > 100 µM
- TGI [46]: > 100 µM
- TGI [12]: > 100 µM
- TGI [13]: > 100 µM
- TGI [14]: > 100 µM
- TGI [15]: > 100 µM
- TGI [47]: > 100 µM
- TGI [16]: > 100 µM
- TGI [48]: > 100 µM
- TGI [17]: > 100 µM
- TGI [18]: > 100 µM
- TGI [19]: > 100 µM
- TGI [20]: > 100 µM
- TGI [49]: > 100 µM
- TGI [50]: > 100 µM
- TGI [21]: > 100 µM
- TGI [22]: > 100 µM
- TGI [23]: > 100 µM
- TGI [51]: > 100 µM
- TGI [52]: > 100 µM
- TGI [24]: 96.8 µM
- TGI [25]: > 100 µM
- TGI [53]: > 100 µM
- TGI [54]: > 100 µM
- TGI [26]: > 100 µM
- TGI [27]: > 100 µM
- TGI [55]: > 100 µM
- TGI [28]: > 100 µM
- TGI [29]: > 100 µM
- TGI [30]: > 100 µM
- TGI [31]: > 100 µM
- TGI [32]: > 100 µM
- TGI [33]: > 100 µM
- TGI [34]: > 100 µM
- TGI [35]: > 100 µM
- TGI [36]: > 100 µM
- TGI [56]: > 100 µM
- TGI [37]: > 100 µM
- TGI [38]: > 100 µM
